Data from ChEMBL document CHEMBL1201862, “PubChem BioAssay data set” (2004).
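Cells were grown in 96-well plates and exposed to each compound for 48 hours at five concentrations; endpoints were interpolated linearly between bracketing concentrations, or set to the highest concentration if not reached. GI50 marks 50% less growth.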 Activity calls are given as the source filed them. Cut-off read from the data, not from the text of the source: active = GI50 up to about 1.1 µM and inactive = higher.

Key:
Assay in all cases: NCI anticancer screen, dose series, 48 h
HL-60 = test system: HL-60
HOP-62 = test system: HOP-62
HOP-92 = test system: HOP-92
KM-20L2 = test system: KM-20L2
M14 = test system: M14
OVCAR-3 = test system: OVCAR-3
OVCAR-4 = test system: OVCAR-4
OVCAR-8 = test system: OVCAR-8
SF-268 = test system: SF-268
SF-295 = test system: SF-295
SK-MEL-28 = test system: SK-MEL-28
SNB-75 = test system: SNB-75
UO-31 = test system: UO-31
A498 = test system: A498
HCT-116 = test system: HCT-116
KM12 = test system: KM12
OVCAR-5 = test system: OVCAR-5

Measured: GI50

CC(=O)c1c(O)c2c([nH]c1=O)CCCC2
inactive: HL-60 48.3 µM | HOP-62 19.9 µM | HOP-92 > 100 µM | KM-20L2 43.1 µM | M14 39.3 µM | OVCAR-3 > 100 µM | OVCAR-4 > 100 µM | OVCAR-8 82.2 µM | SF-268 46.8 µM | SF-295 15.7 µM | SK-MEL-28 94.4 µM | SNB-75 10.6 µM | UO-31 17.2 µM

NC(=O)c1csc(C2C=CC(CO)O2)n1 (stereo not given)
inactive: A498 > 100 µM | HCT-116 > 100 µM | HL-60 > 100 µM | HOP-62 > 100 µM | HOP-92 > 100 µM | KM-20L2 > 100 µM | KM12 > 10 µM | M14 > 100 µM | OVCAR-3 > 10 µM | OVCAR-4 > 100 µM | OVCAR-5 > 100 µM | OVCAR-8 > 100 µM | SF-268 > 100 µM | SF-295 > 10 µM | SK-MEL-28 > 100 µM | UO-31 > 100 µM

C=C(C(=C)P(=S)(C(C)C)C(C)C)P(=S)(C(C)C)C(C)C
inactive: A498 > 100 µM | HCT-116 > 100 µM | HL-60 > 100 µM | HOP-62 > 100 µM | HOP-92 > 100 µM | KM-20L2 > 100 µM | KM12 > 100 µM | M14 > 100 µM | OVCAR-3 > 100 µM | OVCAR-4 > 100 µM | OVCAR-5 > 100 µM | OVCAR-8 > 100 µM | SF-268 > 100 µM | SF-295 > 100 µM | SK-MEL-28 > 100 µM | SNB-75 > 100 µM | UO-31 > 100 µM

COc1cc2c(cc1OC)C1Cc3cc(OC)c(OC)cc3N1CC2 (stereo not given)
inactive: A498 40.5 µM | HCT-116 31.1 µM | HL-60 20.9 µM | HOP-62 27.6 µM | HOP-92 33 µM | KM-20L2 38.6 µM | KM12 28.6 µM | M14 20 µM | OVCAR-3 31.9 µM | OVCAR-4 18.9 µM | OVCAR-5 > 100 µM | OVCAR-8 34.8 µM | SF-268 35 µM | SF-295 33.8 µM | SK-MEL-28 32.1 µM | SNB-75 21.4 µM | UO-31 36.9 µM

N/N=C(\CCN1CCCC1)CC(c1ccccc1)c1c(O)c2ccccc2oc1=O (stereo not given)
inactive: HCT-116 > 100 µM | HL-60 > 100 µM | HOP-62 > 100 µM | HOP-92 49 µM | KM-20L2 > 100 µM | KM12 > 100 µM | M14 > 100 µM | OVCAR-3 > 100 µM | OVCAR-4 > 100 µM | OVCAR-5 > 100 µM | OVCAR-8 > 100 µM | SF-268 > 100 µM | SF-295 > 100 µM | SK-MEL-28 > 100 µM | SNB-75 45.3 µM

O=C(O)c1c2c(cc3c(=O)c4ccccc4[nH]c13)CCCC2
inactive: HCT-116 82 µM | HL-60 > 100 µM | HOP-62 > 100 µM | HOP-92 59.7 µM | KM-20L2 > 100 µM | OVCAR-3 > 100 µM | OVCAR-5 > 100 µM | OVCAR-8 > 100 µM | SF-268 > 100 µM | SF-295 68.5 µM | SK-MEL-28 > 100 µM | SNB-75 > 100 µM | UO-31 > 100 µM

COC(=O)C1=C(O)c2cc(-c3ccccc3)c(-c3ccccc3)c(C#N)c2NC(=O)C1
inactive: A498 33.9 µM | HCT-116 1.92 µM | HL-60 1.33 µM | HOP-62 20.4 µM | KM-20L2 13.1 µM | KM12 7.01 µM | M14 4.99 µM | OVCAR-3 77.8 µM | OVCAR-4 27.2 µM | OVCAR-8 4.13 µM | SF-295 3.54 µM | SK-MEL-28 34.5 µM | SNB-75 16.8 µM | UO-31 1.4 µM

N#CC(C(=O)C(=O)C(C#N)c1ccc(Br)cc1)c1ccc(Br)cc1 (stereo not given)
inactive: A498 15.8 µM | HCT-116 14.1 µM | HL-60 4.06 µM | HOP-62 13.2 µM | HOP-92 13.3 µM | KM-20L2 12.2 µM | KM12 10.6 µM | M14 14.2 µM | OVCAR-3 9.38 µM | OVCAR-4 12.3 µM | OVCAR-5 18.2 µM | SF-268 10.5 µM | SF-295 13.6 µM | SK-MEL-28 14.6 µM | SNB-75 5.13 µM | UO-31 16.3 µM

Fc1ccc(C2SCc3nc4ccccc4n32)cc1Cl (stereo not given)
inactive: A498 33.7 µM | HL-60 13.1 µM | HOP-62 15.5 µM | HOP-92 12 µM | KM-20L2 29.9 µM | KM12 16.1 µM | OVCAR-4 20 µM | OVCAR-5 15.4 µM | OVCAR-8 21.3 µM | SF-268 33.6 µM | SF-295 26.5 µM | SK-MEL-28 24.7 µM | UO-31 16.7 µM

C/C(CC(=O)Nc1ccccc1)=N\NC(N)=S
inactive: HCT-116 > 100 µM | HL-60 > 100 µM | HOP-62 > 100 µM | HOP-92 > 100 µM | KM-20L2 > 100 µM | KM12 > 100 µM | M14 > 100 µM | OVCAR-3 > 100 µM | OVCAR-5 > 100 µM | OVCAR-8 > 100 µM | SF-268 > 100 µM | SF-295 > 100 µM | SK-MEL-28 > 100 µM | SNB-75 > 100 µM | UO-31 > 100 µM

O=C(N/C(=C\c1ccc(/C=C(\NC(=O)c2ccccc2)c2nc3ccccc3[nH]2)cc1)c1nc2ccccc2[nH]1)c1ccccc1
inactive: A498 > 100 µM | HCT-116 > 100 µM | HOP-62 > 100 µM | HOP-92 > 100 µM | KM-20L2 > 100 µM | M14 57.9 µM | OVCAR-3 > 100 µM | OVCAR-4 > 100 µM | OVCAR-5 > 100 µM | OVCAR-8 > 100 µM | SF-268 > 100 µM | SF-295 > 100 µM | SK-MEL-28 > 100 µM | SNB-75 > 100 µM | UO-31 > 100 µM

CSC(C1c2ccccc2N(c2ccc(C)cc2)C2=NC(=O)N(C)C(=O)C21Cl)S(=O)(=O)c1ccc(C)cc1 (stereo not given)
inactive: A498 33 µM | HCT-116 13 µM | HL-60 3.31 µM | HOP-62 20.7 µM | HOP-92 11 µM | KM-20L2 21.7 µM | M14 26.9 µM | OVCAR-3 13.2 µM | OVCAR-4 17.9 µM | OVCAR-5 35.3 µM | OVCAR-8 27.8 µM | SF-268 23.6 µM | SF-295 24.2 µM | SK-MEL-28 21 µM | SNB-75 23 µM | UO-31 22.4 µM

COC1CC(n2cc(F)c(N)nc2=O)OC1CO (stereo not given)
inactive: HL-60 > 100 µM | HOP-62 > 100 µM | HOP-92 > 100 µM | KM-20L2 > 100 µM | KM12 > 100 µM | M14 > 100 µM | OVCAR-3 > 100 µM | OVCAR-4 > 100 µM | OVCAR-5 > 100 µM | OVCAR-8 > 100 µM | SF-268 > 100 µM | SF-295 > 100 µM | SK-MEL-28 > 100 µM | SNB-75 > 100 µM | UO-31 > 100 µM
